What all share (format): cell-based
For one experiment, the system named is MCF-7. The experiment can be described thus: MTT assay (anti-proliferative activity). The following applies: read-out: IC 50 MCF-7. The procedure: (§1) The MTT assay was used initially to determine the anti-proliferative activity of the test compounds. In the MTT assay a yellow thiazolyl blue tetrazolium bromide salt (MTT) is reduced, in metabolically active cells, to form insoluble purple formazan crystals which are solubilised by the addition of dimethyl sulphoxide (DMSO).
(§2) Wells containing medium only were used as blanks. Following the attachment period, cells were treated with appropriate drug concentrations (20 μl added per well). 40 mg/ml stock drug solutions, in DMSO, were stored at −20° C. and on the day of drug treatment working solutions of 4 mg/ml were prepared in medium which was further diluted to achieve final drug dilution volumes of 20 μl. Initial screening was determined over a concentration range of 1-200 μg/ml. […] Cells were exposed to drug for 96 h continual exposure (37° C., 5% CO2). Following the 96 h incubation, 50 μl MTT solution (1 g MTT/500 ml PBS) was added per well and the plates were further incubated for 4 h (37° C., 5% CO2). After incubation the MTT and medium was removed from the wells and 100 μl DMSO added per well. Plates were agitated on an orbital mixer platform (Stuart Scientific) for 10 minutes. Absorbance was measured at 570 nm on a Biotrak II (Amersham Bioscience) plate reader. IC50 values were calculated comparing control and drug treated cells.
For orientation: Tetrazolium dyes change colour on reduction, which living cells bring about.

The test system of a further experiment is MDA-MB-468. As to the kind of experiment: MTT assay (anti-proliferative activity). Particulars: read-out: IC 50 MDA-MB-468. The procedure:
as §1, §2

The next experiment relates to MalMe3M. The experiment can be described thus: MTT assay (anti-proliferative activity). Particulars: 96 h continual exposure, read-out: IC 50 MalMe3M. The procedure:
as §1, §2

Another experiment deals with SkMel28. As to the kind of experiment: MTT assay (anti-proliferative activity). The following applies: read-out: IC 50 SkMel28. The procedure:
as §1, §2

Experiment [1] has as its system breast cancer (MDA-MB-468 and MCF-7 cell lines) and melanoma cell lines (MalMe3, SkMe128). As to the kind of experiment: Cell cycle analysis by flow cytometry (propidium iodide); apoptosis as cells in sub G0/G1 (pre G0) peak. Particulars: following treatment with IC70 concentration of compound. The procedure:
Assessment of cell cycle analysis was performed using propidium iodide staining of cells and subsequent analysis on a Beckton Dickinson flow cytometer. […] The following day the medium was removed and replaced with 5 ml medium per flask containing the appropriate drug concentrations to be tested. 40 mg/ml stock drug solutions in DMSO were stores at −20° C. and on the day off drug treatment working solutions of 4 mg/ml were prepared in medium from which the final drug dilutions were prepared. Cells were maintained in an incubator (37° C., 5% CO2) for up to 96 h post treatment. After 24, 48, 72 or 96 h time points the medium from each flask was collected, stored on ice, and the remaining cells in the flasks were trypsinised by aiding 1 ml trypsin-EDTA solution to each flask. Cells were replaced into the incubator for 10 min to allow them to detach from the plastic plate. The cells in each flask were collected by adding the appropriate medium removed from each flask back to the corresponding flask and then placing medium containing both the attached and floating cells into a 15 ml tube. Cells were centrifuged at 4° C. for 5 min at 1500 rpm and the supernatant removed from each tube. The remaining cells were washed twice in ice cold PBS and then fixed in ice cold methanol overnight at −20° C. On the day of analysis of cells each tube was centrifuged at 4° C. for 5 min at 1500 rpm and the methanol removed and the cells washed twice in ice cold PBS. 20 μl propidium iodide solution (1 mg/ml) and 20 μl RNase A (10 mg/ml solution) were added to 1 ml PBS per tube and the cells were incubated for 30 min at 37° C. Cells were analysed on the flow cytometer and cell cycle changes were assessed.

The mark [2] stands for this setting: Homo sapiens, MCF7, 96 h continual exposure.
The mark [3] stands for this setting: Homo sapiens, MDA-MB-468, 96 h continual exposure.
[4] abbreviates: Homo sapiens, SK-MEL-28, 96 h continual exposure.

Like-named read-outs stand apart in the source and are kept apart here.

In the case of `CC1Cc2ccc(C(=O)NC(Cc3ccccc3)C(=O)OC(C)(C)C)c(O)c2C(=O)O1` (mixture of isomers) [ALM-53, L-Phenyl Alanine Tert-Butyl Ester Amide], the IC50 in the experiment with MCF-7 (96 h continual exposure) amounted to 9.4 µM; in the experiment with MDA-MB-468 (96 h continual exposure), 2.3 µM; in the experiment with MalMe3M, 11.7 µM; in the experiment on SkMel28 (96 h continual exposure) it was 70.5 µM. For the same molecule, in experiment [1], the “% Cells in Pre G0 phase of Cell Cycle” value stood at 8.9%.
Consider `CC1Cc2ccc(F)c(O)c2C(=O)O1` (racemic) [ALM-22, Racemic Ortho-Fluoromellein], for which the IC50 with MCF-7 (setting [2]) was determined as 173 µM; with MDA-MB-468 (setting [3]), 61.2 µM; with MalMe3M (Homo sapiens, Malme-3M), 96.8 µM; in the experiment with SkMel28 (setting [4]), 96.8 µM. Besides, in experiment [1], the “% Cells in Pre G0 phase of Cell Cycle” value is 16.5%.
Consider `CC1Cc2ccc(I)c(O)c2C(=O)O1` (racemic) [ALM-25, Racemic Ortho-Iodomellein], for which the IC50 in the experiment with MCF-7 (setting [2]) came out at 72.3 µM; in the experiment on MDA-MB-468 (setting [3]), 72.3 µM; with MalMe3M (Homo sapiens, Malme-3M) it was 75.6 µM; in the experiment with SkMel28 (setting [4]) it was 78.9 µM. The “% Cells in Pre G0 phase of Cell Cycle” value in experiment [1] worked out at 37.0%.
On to `CC1Cc2ccc(C(=O)NCc3ccccc3)c(O)c2C(=O)O1` (racemic) [ALM-44, Benzyl Amide], for which the IC50 was 86.7 µM in the experiment on MCF-7 (96 h continual exposure), 41.8 µM with MDA-MB-468 (96 h continual exposure), 128 µM in the experiment on MalMe3M and 270 µM in the experiment with SkMel28 (96 h continual exposure).
Take `CC1Cc2ccc(C(=O)Nc3ccccc3)c(O)c2C(=O)O1` (racemic) [ALM-45, Aniline Amide]: the IC50 was found to be 26.9 µM in the experiment with MCF-7 (96 h continual exposure), 10.1 µM with MDA-MB-468 (96 h continual exposure), 33.6 µM in the experiment with MalMe3M and 172 µM in the experiment with SkMel28 (96 h continual exposure). Besides, the “% Cells in Pre G0 phase of Cell Cycle” value in experiment [1] is reported as 6.4%.
As for `CC1Cc2ccc(C(=O)n3ccnc3)c(O)c2C(=O)O1` (racemic) [ALM-46, CDI derivative], the IC50 was greater than 734 µM in the experiment with MCF-7 (96 h continual exposure), 73.4 µM in the experiment on MDA-MB-468 (96 h continual exposure), greater than 734 µM in the experiment on MalMe3M and greater than 734 µM in the experiment with SkMel28 (96 h continual exposure).
Consider `CC1Cc2ccc(C(=O)N3CCCC3)c(O)c2C(=O)O1` (racemic) [ALM-47, Pyrrolidine Amide], for which the IC50 was greater than 726 µM in the experiment on MCF-7 (96 h continual exposure), 490 µM in the experiment on MDA-MB-468 (96 h continual exposure), greater than 726 µM with MalMe3M and greater than 726 µM in the experiment with SkMel28 (96 h continual exposure).
As for `CNC(=O)c1ccc2c(c1O)C(=O)OC(C)C2` (racemic) [ALM-48, Methyl Amide], the IC50 with MCF-7 (96 h continual exposure) worked out at 268 µM; in the experiment with MDA-MB-468 (96 h continual exposure) it was 289 µM; in the experiment with MalMe3M, 191 µM; in the experiment on SkMel28 (96 h continual exposure) it was 502 µM.
The like results for `CCCCCCN(C)C(=O)c1ccc2c(c1O)C(=O)OC(C)C2` (racemic) [ALM-50, N-Methyl-N-Hexyl Amide] were, in that order, 90.8 µM, 59.5 µM, 110 µM and 141 µM.
Turning to `CCCCCCCCCCCCNC(=O)c1ccc2c(c1O)C(=O)OC(C)C2` (racemic) [ALM-51, Dodecyl Amide], the IC50 was 12.8 µM with MCF-7 (96 h continual exposure), 10.3 µM in the experiment with MDA-MB-468 (96 h continual exposure), 25.7 µM in the experiment with MalMe3M and 33.4 µM in the experiment with SkMel28 (96 h continual exposure). The “% Cells in Pre G0 phase of Cell Cycle” value in experiment [1] worked out at 20.6%.
The corresponding values for `CCCCCCCC/C=C\CCCCCCCCNC(=O)c1ccc2c(c1O)C(=O)OC(C)C2` (racemic) [ALM-52, Oleyl Amide] are 21.2 µM, 12.7 µM, 52.9 µM, 244 µM and 19.8%.
Take `C[C@H]1Cc2cccc(O)c2C(=O)O1` [ALM-10, (3S)-mellein]: the IC50 in the experiment with MCF-7 (setting [2]) was found to be 596 µM; with MDA-MB-468 (setting [3]) it was 317 µM; with MalMe3M (Homo sapiens, Malme-3M) it was 360 µM; in the experiment on SkMel28 (setting [4]), 961 µM.
For the molecule `C[C@@H]1Cc2cccc(O)c2C(=O)O1` [ALM-11, (3R)-mellein], the IC50 was 961 µM in the experiment on MCF-7 (setting [2]); 428 µM in the experiment on MDA-MB-468 (setting [3]); greater than 960 µM with MalMe3M (Homo sapiens, Malme-3M); 961 µM in the experiment with SkMel28 (setting [4]).
As for `COc1cccc2c1C(=O)O[C@@H](C)C2` [ALM-13, (3S)-methoxy mellein], the IC50 is greater than 1040 µM in the experiment on MCF-7 (setting [2]); 1040 µM in the experiment with MDA-MB-468 (setting [3]); 822 µM with MalMe3M (Homo sapiens, Malme-3M); greater than 1040 µM in the experiment on SkMel28 (setting [4]).
Turning to `COc1cccc2c1C(=O)O[C@H](C)C2` [ALM-14, (3R)-methoxy mellein], the IC50 with MCF-7 (setting [2]) was 1040 µM; in the experiment on MDA-MB-468 (setting [3]) it was greater than 1040 µM; with MalMe3M (Homo sapiens, Malme-3M), greater than 1040 µM; with SkMel28 (setting [4]), greater than 1040 µM.
Regarding `C[C@@H]1Cc2ccc(C(=O)N[C@@H](Cc3ccccc3)C(=O)O)c(O)c2C(=O)O1` [ALM-32, ochratoxin B], the IC50 stood at 18.9 µM in the experiment with MCF-7 (96 h continual exposure), 18.9 µM in the experiment on MDA-MB-468 (96 h continual exposure), 13.5 µM in the experiment on MalMe3M and 21.6 µM in the experiment on SkMel28 (96 h continual exposure).
For the molecule `COC(=O)c1ccc2c(c1O)C(=O)OCC2` [ALM-68, 8-hydroxy-1-oxo-isochroman-7-carboxylic acid methyl ester], the IC50 in the experiment on MCF-7 (setting [2]) came to 338 µM; in the experiment on MDA-MB-468 (setting [3]) it was 270 µM; in the experiment on MalMe3M (Homo sapiens, Malme-3M) it was 518 µM; with SkMel28 (setting [4]), 562 µM.
Consider `CC(C)(C)OC(=O)[C@H](Cc1ccccc1)NC(=O)c1ccc2c(c1O)C(=O)OCC2` [ALM-69, L-Phenyl Alanine Tert-Butyl Ester Amide of Compound ALM-68], for which the IC50 in the experiment on MCF-7 (96 h continual exposure) worked out at 18.2 µM; in the experiment on MDA-MB-468 (96 h continual exposure), 14.6 µM; in the experiment on MalMe3M it was 21.9 µM; in the experiment with SkMel28 (96 h continual exposure) it was 72.9 µM. In experiment [1], the “% Cells in Pre G0 phase of Cell Cycle” value is 14.4%.
The corresponding values for `O=C(N[C@@H](Cc1ccccc1)C(=O)O)c1ccc2c(c1O)C(=O)OCC2` [ALM-70, L-Phenyl Alanine Amide of Compound ALM-68] are 8.4 µM, 1.4 µM, 18.3 µM, 42.2 µM and 32.7%.
As to `COC(=O)c1ccc2c(c1O)C(=O)OC(C)(C)C2` [ALM-71, 8-hydroxy-3,3-dimethyl-1-oxo-isochroman-7-carboxylic acid methyl ester], the IC50 in the experiment with MCF-7 (setting [2]) was 400 µM; in the experiment on MDA-MB-468 (setting [3]), 336 µM; with MalMe3M (Homo sapiens, Malme-3M) it was greater than 799 µM; with SkMel28 (setting [4]) it was greater than 799 µM.
In the case of `CC1(C)Cc2ccc(C(=O)O)c(O)c2C(=O)O1` [ALM-72, 8-hydroxy-3,3-dimethyl-1-oxo-isochroman-7-carboxylic acid], the IC50 in the experiment with MCF-7 (setting [2]) is greater than 846 µM; in the experiment on MDA-MB-468 (setting [3]), greater than 846 µM; in the experiment on MalMe3M (Homo sapiens, Malme-3M), greater than 846 µM; in the experiment with SkMel28 (setting [4]), greater than 846 µM.
In the case of `CC(C)(C)OC(=O)[C@H](Cc1ccccc1)NC(=O)c1ccc2c(c1O)C(=O)OC(C)(C)C2` [ALM-73, L-Phenyl Alanine Tert-Butyl Ester Amide of Compound ALM-71], the IC50 is 14.8 µM in the experiment with MCF-7 (96 h continual exposure), 9.1 µM in the experiment on MDA-MB-468 (96 h continual exposure), 9.1 µM in the experiment on MalMe3M and 13.7 µM in the experiment on SkMel28 (96 h continual exposure). The “% Cells in Pre G0 phase of Cell Cycle” value in experiment [1] is 25.3%.
Turning to `CC1Cc2ccc3c(c2C(=O)O1)OC(C)(C)OC3=O` (stereo not shown) [ALM-75, Acetonide Compound], the IC50 with MCF-7 (setting [2]) is greater than 762 µM; with MDA-MB-468 (setting [3]), greater than 762 µM; in the experiment with MalMe3M (Homo sapiens, Malme-3M), greater than 762 µM; in the experiment on SkMel28 (setting [4]) it was greater than 762 µM.
As to Racemic Kigelin Oleyl Ester [ALM-2], the IC50 in the experiment with MCF-7 (96 h continual exposure), in the experiment with MDA-MB-468 (96 h continual exposure), in the experiment on MalMe3M and with SkMel28 (96 h continual exposure) was greater than 397 µM throughout.
Take Racemic Mellein Oleyl Ester [ALM-17]: the IC50 with MCF-7 (96 h continual exposure), with MDA-MB-468 (96 h continual exposure), in the experiment on MalMe3M and with SkMel28 (96 h continual exposure) was greater than 451 µM in each case.

Source of the values: US20090047221A1 (NIPRI LIMITED, priority 2004, published 2009).
